Experiment [1] concerns 3T3-L1 adipocytes. The experiment is described as follows: Standardization / validation of [3H]-glucose uptake 3T3-L1 assay with insulin and glitazone. The note with it: for [3H]-glucose uptake with insulin: in cpm (unit assumed); for Counts with insulin: insulin alone control. The experiment is classed as cell-based. Here is the method:
In the first set of assays (insulin control and the first 9 samples) cells were grown in 96 well plates, and assayed for 3H-deoxyglucose uptake. Briefly cells were treated with plant extract overnight and immediately before the assay got washed with Krebs-Ringer-HEPES Buffer [20 mM HEPES, pH 7.4, 136 mM NaCl, 4.7 mM KCl, 1.5 mM MgSO4] at 37° C. for 30 minutes and then treated with insulin. Glucose uptake reaction was initiated by adding 0.1 mM deoxy-glucose containing deoxy-tritiated-glucose containing 12.2 kBq/mL. After 30 minutes of 37° C. incubation, the reaction was terminated by adding 40 uM cytochalasin-B. Cells were washed 3× with ice cold KRH buffer and solubilized with 100 μl of 10% Triton-X with Ca/Mg free PBS. Radioactivity incorporated into cells was measured on a top count microplate scintillation counter. Results are being interpreted as mean±SD of counts per minute.
As the basal counts were low, the assay design was changed to a 24-well format and the cell numbers increased from 100,000 cells per well to 2 million cells per well.
The two controls in this experiment were: (a) [^3H]-deoxyglucose uptake by cells in the absence of both insulin and plant extracts, and (b) [^3H]-deoxyglucose uptake by cells in the presence of insulin and absence of plant extracts.

Experiment [2] has as its system 3T3-L1 adipocytes. The description is as above. The experiment is classed as cell-based. The note with it: 48 hrs.

Turning to `O=C1NC(=O)C(Cc2ccc(O)cc2)S1` (stereo not drawn) [Glitazone], the Counts per minute turned out to be 15900.4 Counts per minute in experiment [1] (Glitazone 150 μg, 48 hrs); 7886 Counts per minute in experiment [2] (Glitazone 60 μg); 47971.9 Counts per minute in experiment [2] (Glitazone 300 μg).

Turning to Insulin, the “[3H]-glucose uptake with insulin” value is listed as 60.5 in experiment [1] (100,000 cells/well, Insulin 1 nM); 502 in experiment [1] (100,000 cells/well, Insulin 10 nM); 1850 in experiment [1] (100,000 cells/well, Insulin 100 nM); 36562 in experiment [1] (2,000,000 cells/well, Insulin 10 nM); 38538 in experiment [1] (2,000,000 cells/well, Insulin 25 nM); 55258 in experiment [1] (2,000,000 cells/well, Insulin 100 nM). The Counts per minute in experiment [1] (Insulin 25 nM, 15 min) is given as 48026.7 Counts per minute; in experiment [1] (Insulin 25 nM, 30 min), 24699.9 Counts per minute; in experiment [1] (Insulin 25 nM, 60 min) it was 28103.3 Counts per minute. Moreover, the “[3H]-deoxyglucose uptake, Counts per minute” value in experiment [1] (control: cells + insulin, no plant extract) is recorded as 36561 Counts per minute. Further, the Counts with insulin came to 33065.1 Counts per minute in experiment [1] (Table 15, first of two value columns) and 32352.28 Counts per minute in experiment [1] (Table 15, second of two value columns).

Source of the values: patent US20060269621A1, “Novel therapeutic extracts and molecules for degenerative conditions” (Avestha Gengraine Technologies Pvt.Ltd., priority 2003, published 2006).
